Reference: PubChem BioAssay (NCI)
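Method: 48-hour compound exposure of cells in 96-well plates, five concentrations, linear interpolation of endpoints. TGI: concentration producing complete growth inhibition.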

Assays:
Assay in all cases: DTP human tumour cell line panel, 48 h
[1] = test system: 786-0 renal
[2] = test system: A498 renal
[3] = test system: A549 NSCLC
[4] = test system: ACHN renal
[5] = test system: BT-549 breast
[6] = test system: CAKI-1 renal
[7] = test system: CCRF-CEM leukemia
[8] = test system: COLO 205 colon
[9] = test system: DLD-1 colon
[10] = test system: DMS 114 small cell lung
[11] = test system: DMS 273 small cell lung
[12] = test system: DU-145 prostate
[13] = test system: EKVX NSCLC
[14] = test system: HCC-2998 colon
[15] = test system: HCT-116 colon
[16] = test system: HCT-15 colon
[17] = test system: HL-60(TB) leukemia
[18] = test system: HOP-18 NSCLC
[19] = test system: HOP-62 NSCLC
[20] = test system: HOP-92 NSCLC
[21] = test system: HS 578T breast
[22] = test system: HT29 colon
[23] = test system: IGROV1 ovarian
[24] = test system: K-562 leukemia
[25] = test system: KM12 colon
[26] = test system: KM20L2 colon
[27] = test system: LOX IMVI melanoma
[28] = test system: LXFL 529 NSCLC
[29] = test system: M14 melanoma
[30] = test system: M19-MEL melanoma
[31] = test system: MALME-3M melanoma
[32] = test system: MCF7 breast
[33] = test system: MDA-MB-231 breast
[34] = test system: MDA-MB-435
[35] = test system: MDA-N
[36] = test system: MOLT-4 leukemia
[37] = test system: NCI-H226 lung
[38] = test system: NCI-H23 lung
[39] = test system: NCI-H460 lung
[40] = test system: NCI-H522 lung
[41] = test system: NCI/ADR-RES ovarian
[42] = test system: OVCAR-3 ovarian
[43] = test system: OVCAR-4 ovarian
[44] = test system: OVCAR-5 ovarian
[45] = test system: OVCAR-8 ovarian
[46] = test system: PC-3 prostate
[47] = test system: RPMI-8226 leukemia
[48] = test system: RXF 393 renal
[49] = test system: SF-268 CNS
[50] = test system: SF-295 CNS
[51] = test system: SF-539 CNS
[52] = test system: SK-MEL-2 melanoma
[53] = test system: SK-MEL-28 melanoma
[54] = test system: SK-MEL-5 melanoma
[55] = test system: SK-OV-3 ovarian
[56] = test system: SN12C renal
[57] = test system: SNB-19 CNS
[58] = test system: SNB-75 CNS
[59] = test system: SNB-78 CNS
[60] = test system: SR leukemia
[61] = test system: SW-620 colon
[62] = test system: T-47D breast
[63] = test system: TK-10 renal
[64] = test system: U251 CNS
[65] = test system: UACC-257 melanoma
[66] = test system: UACC-62 melanoma
[67] = test system: UO-31 renal
[68] = test system: XF 498 CNS
[69] = test system: RXF-631 renal

With `CCNCCCCNCCCCNCCCCNCCCCNCC` the TGI [1] was 98.6 µM, the TGI [2] was over 100 µM and the TGI [3] was over 100 µM. It also gave a TGI [4] of over 100 µM, a TGI [5] of over 100 µM and a TGI [6] of over 73.1 µM. The TGI [7] was over 100 µM, the TGI [8] was over 100 µM and the TGI [9] was over 100 µM. The TGI [10] was over 100 µM, the TGI [11] was over 100 µM and the TGI [12] was over 100 µM. The TGI [13] was over 100 µM, the TGI [14] was over 100 µM and the TGI [15] was over 100 µM. It also gave a TGI [16] of over 100 µM, a TGI [17] of over 100 µM and a TGI [18] of over 100 µM. It also gave a TGI [19] of over 100 µM, a TGI [20] of over 100 µM and a TGI [21] of 26.3 µM. It also gave a TGI [22] of over 100 µM, a TGI [23] of over 100 µM and a TGI [24] of over 100 µM. The TGI [25] was over 100 µM, the TGI [26] was over 100 µM and the TGI [27] was over 100 µM. The TGI [28] was over 100 µM, the TGI [29] was over 100 µM and the TGI [30] was over 100 µM. It also gave a TGI [31] of 31.5 µM, a TGI [32] of over 100 µM and a TGI [33] of over 100 µM. For the same compound, the TGI [34] was 38.6 µM, the TGI [35] was 61.8 µM and the TGI [36] was over 100 µM. It also gave a TGI [37] of over 100 µM, a TGI [38] of over 100 µM and a TGI [39] of over 100 µM. For the same compound, the TGI [40] was over 100 µM, the TGI [41] was over 100 µM and the TGI [42] was over 100 µM. For the same compound, the TGI [43] was over 100 µM, the TGI [44] was over 100 µM and the TGI [45] was over 100 µM. The TGI [46] was over 100 µM, the TGI [47] was over 100 µM and the TGI [48] was over 52.6 µM. It also gave a TGI [49] of over 77.7 µM, a TGI [50] of over 100 µM and a TGI [51] of over 100 µM. It also gave a TGI [52] of over 100 µM, a TGI [53] of 52.6 µM and a TGI [54] of over 100 µM. It also gave a TGI [55] of over 100 µM, a TGI [56] of over 100 µM and a TGI [57] of over 100 µM. For the same compound, the TGI [58] was 78.4 µM, the TGI [59] was over 100 µM and the TGI [60] was over 100 µM. The TGI [61] was over 100 µM, the TGI [62] was over 100 µM and the TGI [63] was over 56.2 µM. It also gave a TGI [64] of over 100 µM, a TGI [65] of 81.3 µM and a TGI [66] of 43.8 µM. The TGI [67] was over 100 µM and the TGI [68] was over 100 µM.

`O=C1O[C@@H](c2ccccc2)C[C@H]1CN1CCOCC1` was tested, and the TGI [1] was over 100 µM, the TGI [2] was over 100 µM and the TGI [3] was over 100 µM. For the same compound, the TGI [4] was over 100 µM, the TGI [6] was 41.3 µM and the TGI [7] was over 100 µM. It also gave a TGI [8] of over 100 µM, a TGI [9] of over 100 µM and a TGI [10] of over 100 µM. The TGI [13] was over 100 µM, the TGI [14] was over 100 µM and the TGI [16] was over 100 µM. The TGI [17] was over 100 µM, the TGI [19] was over 100 µM and the TGI [20] was over 100 µM. For the same compound, the TGI [22] was over 100 µM, the TGI [23] was over 100 µM and the TGI [24] was over 100 µM. It also gave a TGI [25] of over 100 µM, a TGI [26] of over 100 µM and a TGI [27] of over 100 µM. It also gave a TGI [28] of over 100 µM, a TGI [29] of over 100 µM and a TGI [31] of over 100 µM. It also gave a TGI [36] of over 100 µM, a TGI [37] of over 100 µM and a TGI [38] of 35.4 µM. It also gave a TGI [39] of over 100 µM, a TGI [40] of over 100 µM and a TGI [42] of over 100 µM. The TGI [43] was over 100 µM, the TGI [44] was over 100 µM and the TGI [45] was over 100 µM. For the same compound, the TGI [47] was over 100 µM, the TGI [48] was over 100 µM and the TGI [69] was over 100 µM. For the same compound, the TGI [49] was over 100 µM, the TGI [50] was over 100 µM and the TGI [51] was over 100 µM. It also gave a TGI [52] of over 100 µM, a TGI [53] of over 100 µM and a TGI [54] of over 100 µM. For the same compound, the TGI [55] was over 100 µM, the TGI [56] was over 100 µM and the TGI [58] was over 100 µM. For the same compound, the TGI [59] was over 100 µM, the TGI [61] was over 100 µM and the TGI [63] was over 100 µM. It also gave a TGI [64] of over 100 µM, a TGI [65] of over 100 µM and a TGI [66] of over 100 µM. It also gave a TGI [67] of over 100 µM and a TGI [68] of over 100 µM.
